Patent publication US20130217664A1, “NOVEL COMPOUNDS USEFUL FOR THE TREATMENT OF DEGENERATIVE AND INFLAMMATORY DISEASES” (priority 2012, published 2013)
pIC50: −log10 of the molar value. Read-outs that look alike come from different tables or passages of the source.

What was measured:
human JAK1 = target: T1, human JAK1 (Homo sapiens, UniProt P23458); assay: JAK1 inhibition assay (polyGT substrate / Ulight-JAK1 peptide); format: biochemical; details: recombinant human JAK1 catalytic domain; polyGT or Ulight-JAK1 peptide assay
T1 construct: catalytic domain, amino acids 866-1154; catalog number PV4774; purchased Invitrogen PV4774
T1 sequence (P23458 866-1154): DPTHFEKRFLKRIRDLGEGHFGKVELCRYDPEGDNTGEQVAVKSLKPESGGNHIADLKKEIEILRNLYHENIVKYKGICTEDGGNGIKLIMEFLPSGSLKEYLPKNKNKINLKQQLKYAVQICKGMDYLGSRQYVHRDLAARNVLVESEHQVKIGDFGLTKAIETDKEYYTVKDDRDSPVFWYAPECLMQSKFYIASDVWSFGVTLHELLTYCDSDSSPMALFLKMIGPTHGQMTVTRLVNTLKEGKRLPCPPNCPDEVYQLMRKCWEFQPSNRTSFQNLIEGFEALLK
Method in brief: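 Signal scaled between vehicle and 10 μM staurosporine. Radiometric polyGT reactions ran 45 min at 30 °C, counted after phosphoric-acid stop. Ulight peptide reactions ran 60 min at room temperature, fluorescence read after adding Eu-PT66 detection mix with EDTA.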

human JAK2 = target: T2, human JAK2 (Homo sapiens, UniProt O60674); assay: JAK2 inhibition assay (polyGT substrate / Ulight-JAK1 peptide); format: biochemical; details: recombinant human JAK2 catalytic domain; polyGT or Ulight-JAK1 peptide assay
T2 construct: catalytic domain (amino acids 808-1132; catalog number PV4210); GST; purchased Invitrogen PV4210
T2 sequence (O60674 808-1132): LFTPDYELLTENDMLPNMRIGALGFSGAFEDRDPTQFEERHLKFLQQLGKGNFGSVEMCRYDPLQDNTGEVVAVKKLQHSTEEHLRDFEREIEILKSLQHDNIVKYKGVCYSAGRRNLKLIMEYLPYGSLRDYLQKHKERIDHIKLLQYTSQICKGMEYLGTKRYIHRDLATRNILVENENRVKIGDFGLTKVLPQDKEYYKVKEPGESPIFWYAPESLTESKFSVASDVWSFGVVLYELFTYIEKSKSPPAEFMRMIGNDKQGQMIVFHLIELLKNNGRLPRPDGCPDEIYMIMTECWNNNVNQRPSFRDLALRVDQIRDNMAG
Method in brief: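 Two JAK2 formats: a ^33P-ATP polyGT assay (1 μM cold ATP, 90 min, 30° C., cpm read-out) and a Ulight-JAK1 peptide assay read by Europium-anti-phosphotyrosine fluorescence after 60 min at room temperature.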

human JAK3 = target: T3, human JAK3 (Homo sapiens, UniProt P52333); assay: JAK3 inhibition assay; format: biochemical; details: recombinant human JAK3 catalytic domain; polyGT substrate
T3 construct: catalytic domain (amino acids 781-1124; catalog number PV3855); purchased Invitrogen PV3855
T3 sequence (P52333 781-1124): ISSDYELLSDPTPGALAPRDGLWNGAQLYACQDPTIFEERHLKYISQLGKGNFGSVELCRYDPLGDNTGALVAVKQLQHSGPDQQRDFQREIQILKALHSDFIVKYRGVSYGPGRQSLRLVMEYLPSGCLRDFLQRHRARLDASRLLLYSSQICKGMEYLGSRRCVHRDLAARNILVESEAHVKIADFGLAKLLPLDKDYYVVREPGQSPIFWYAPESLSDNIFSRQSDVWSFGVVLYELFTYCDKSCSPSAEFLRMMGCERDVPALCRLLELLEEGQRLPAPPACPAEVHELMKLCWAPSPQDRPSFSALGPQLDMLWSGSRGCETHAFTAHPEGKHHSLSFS
Method in brief: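 Radiometric kinase assay: 0.5 ng JAK3 with 2.5 μg polyGT in Tris pH 7.5/MgCl2 buffer, 1 μM ATP plus 0.25 μCi 33P-γ-ATP, 1% DMSO, 45 min at 30 °C, stopped with phosphoric acid.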

human TYK2 = target: T4, human TYK2 (Homo sapiens, UniProt P29597); assay: TYK2 inhibition assay; format: biochemical; details: recombinant human TYK2 catalytic domain, polyGT substrate
T4 construct: catalytic domain (amino acids 871-1187; catalog number 08-147); purchased Carna Biosciences 08-147
T4 sequence (P29597 871-1187): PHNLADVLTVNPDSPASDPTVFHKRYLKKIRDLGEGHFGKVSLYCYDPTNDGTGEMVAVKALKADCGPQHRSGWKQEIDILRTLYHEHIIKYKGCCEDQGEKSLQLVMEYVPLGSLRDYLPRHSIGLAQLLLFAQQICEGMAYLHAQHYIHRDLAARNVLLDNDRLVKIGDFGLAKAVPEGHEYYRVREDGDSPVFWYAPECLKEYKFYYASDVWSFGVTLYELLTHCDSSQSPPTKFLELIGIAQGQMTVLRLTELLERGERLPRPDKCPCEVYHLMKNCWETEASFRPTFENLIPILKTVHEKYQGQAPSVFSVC
Method in brief: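 Radiometric kinase reaction run 90 min at 30 °C, stopped with phosphoric acid, washed and scintillation-counted.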

CTLL-2 cell line = assay: CTLL2 viability assay; format: cell-based; details: Mus musculus, IL-2 dependent CTLL2 viability, 24 h, ATP-lite
Excerpt: The protocol describes the methods to analyse the activity of compounds on their ability to sustain the IL2-dependent viability of CTLL2.
Final DMSO concentration was 0.1%.

[1] = tested on: pSTAT1(2)-luciferase reporter in HeLa cells triggered with human OSM; assay: JAK-STAT signalling assay; format: cell-based; details: HeLa cells, pSTAT1(2)-luciferase reporter, human OSM 33 ng/mL, read-out: JAK-STAT IC50
Method in brief: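 Compound added 60 min before 33 ng/mL (final) human OSM; after overnight stimulation at 37 °C, luciferase signal from a transiently transfected pSTAT1(2) reporter in HeLa cells was read, with LacZ as internal control. EC50 derived from percent-inhibition dose-response curves.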

SMILES: CN(c1cc2c(cn1)ncn2C)c1ccc(C2CN(S(=O)(=O)N3CCCCC3)C2)cc1OC(F)F [Compound 372, {2-Difluoromethoxy-4-[1-(piperidine-1-sulfonyl)-azetidin-3-yl]-phenyl}-methyl-(1-methyl-1H-imidazo[4,5-c]pyridin-6-yl)-amine]
- pIC50 (human JAK1): 7.00 to 11.00
- pIC50 (human JAK2): 6.30 to 7.00
- pIC50 (human JAK3): 6.00 to 6.30
- pIC50 (human TYK2): 6.30 to 7.00
- pIC50 (CTLL-2 cell line): < 6.00

SMILES: CCc1cc(CN2CCNC(=O)C2)ccc1N(C)c1cc2c(cn1)ncn2C [Compound 421, 4-{3-Ethyl-4-[methyl-(1-methyl-1H-imidazo[4,5-c]pyridin-6-yl)-amino]-benzyl}-piperazin-2-one]
- pIC50 (human JAK1): 7.00 to 11.00
- pIC50 (human JAK2): 6.30 to 7.00
- pIC50 (human JAK3): 6.00 to 6.30
- pIC50 (human TYK2): 7.00 to 11.00
- pIC50 (CTLL-2 cell line): < 6.00

SMILES: CCc1cc(C2CCC2)ncc1N(C)c1cc2c(cn1)ncn2C [Compound 434, (6-Cyclobutyl-4-ethyl-pyridin-3-yl)-methyl-(1-methyl-1H-imidazo[4,5-c]pyridin-6-yl)-amine]
- pIC50 (human JAK1): 7.00 to 11.00
- pIC50 (human JAK2): 6.30 to 7.00
- pIC50 (human JAK3): < 6.00
- pIC50 (human TYK2): 6.30 to 7.00
- pIC50 (CTLL-2 cell line): < 6.00

SMILES: CCc1cc(C(C#N)N2CCC(F)(F)C2)ccc1N(C)c1cc2c(cn1)ncn2C (centres unmarked) [Compound 441, (3,3-Difluoro-pyrrolidin-1-yl)-{3-ethyl-4-[methyl-(1-methyl-1H-imidazol[4,5-d]pyridin-6-yl)-amino]-phenyl}-acetonitrile]
- pIC50 (human JAK1): 7.00 to 11.00
- pIC50 (human JAK2): 7.00 to 11.00
- pIC50 (human JAK3): 6.30 to 7.00
- pIC50 (human TYK2): 7.00 to 11.00
- pIC50 (CTLL-2 cell line): < 6.00

SMILES: CCc1cc(CN2CCC(S(C)(=O)=O)C2)ccc1N(C)c1cc2c(cn1)ncn2C (centres unmarked) [Compound 420, [2-Ethyl-4-(3-methanesulfonyl-pyrrolidin-1-ylmethyl)-phenyl]-methyl-(1-methyl-1H-imidazo[4,5-c]pyridin-6-yl)-amine]
- pIC50 (human JAK1): 7.00 to 11.00
- pIC50 (human JAK2): 6.30 to 7.00
- pIC50 (human JAK3): < 6.00
- pIC50 (human TYK2): 6.30 to 7.00
- pIC50 (CTLL-2 cell line): < 6.00

SMILES: CCc1cc(CN2CCC(F)(F)CC2)ccc1N(C)c1cc2c(cn1)ncn2C [Compound 422, [4-(4,4-Difluoro-piperidin-1-ylmethyl)-2-ethyl-phenyl]-methyl-(1-methyl-1H-imidazo[4,5-c]pyridin-6-yl)-amine]
- pIC50 (human JAK1): 7.00 to 11.00
- pIC50 (human JAK2): 6.00 to 6.30
- pIC50 (human JAK3): < 6.00
- pIC50 (human TYK2): 6.00 to 6.30
- pIC50 (CTLL-2 cell line): < 6.00

SMILES: CCc1cc(C(C#N)N2CCC(C#N)CC2)ccc1N(C)c1cc2c(cn1)ncn2C (centres unmarked) [Compound 435, 1-(Cyano-{3-ethyl-4-[methyl-(1-methyl-1H-imidazo[4,5-c]pyridin-6-yl)-amino]-phenyl}-methyl)-piperidine-4-carbonitrile]
- pIC50 (human JAK1): 7.00 to 11.00
- pIC50 (human JAK2): 7.00 to 11.00
- pIC50 (human JAK3): 6.30 to 7.00
- pIC50 (human TYK2): 7.00 to 11.00
- pIC50 (CTLL-2 cell line): < 6.00

SMILES: CCc1cc(C(C#N)N2CC(O)C2)ccc1N(C)c1cc2c(cn1)ncn2C (centres unmarked) [Compound 450, {3-Ethyl-4-[methyl-(1-methyl-1H-imidazo[4,5-c]pyridin-6-yl)-amino]-phenyl}-(3-hydroxy-azetidin-1-yl)-acetonitrile]
- pIC50 (human JAK1): 7.00 to 11.00
- pIC50 (human JAK2): 7.00 to 11.00
- pIC50 (human JAK3): 6.30 to 7.00
- pIC50 (human TYK2): 7.00 to 11.00
- pIC50 (CTLL-2 cell line): < 6.00

SMILES: CCc1cc(C(C#N)N2CC[C@@H](OC)C2)ccc1N(C)c1cc2c(cn1)ncn2C (stereo partly drawn) [Compound 448, {3-Ethyl-4-[methyl-(1-methyl-1H-imidazo[4,5-c]pyridin-6-yl)-amino]-phenyl}-((R)-3-methoxy-pyrrolidin-1-yl)-acetonitrile]
- pIC50 (human JAK1): 7.00 to 11.00
- pIC50 (human JAK2): 7.00 to 11.00
- pIC50 (human JAK3): 6.30 to 7.00
- pIC50 (human TYK2): 7.00 to 11.00
- pIC50 (CTLL-2 cell line): < 6.00

SMILES: CCc1cc(CNC(=O)OC)ccc1N(C)c1cc2c(cn1)ncn2C [Compound 191, Methyl 3-ethyl-4-(methyl(1-methyl-1H-imidazo[4,5-c]pyridin-6-yl)amino)benzyl carbamate]
- pIC50 (human JAK1): 7.00 to 11.00
- pIC50 (human JAK3): 6.30 to 7.00
- pIC50 (human TYK2): 6.30 to 7.00
- pIC50 ([1]; Homo sapiens, HeLa): 6.00 to 6.30

SMILES: CCc1cc(-c2cnn(CCN3CCCC3)c2)ccc1N(C)c1cc2c(cn1)ncn2C [Compound 219, N-(2-ethyl-4-(1-(2-(pyrrolidin-1-yl)ethyl)-1H-pyrazol-4-yl)phenyl)-N,1-dimethyl-1H-imidazo[4,5-c]pyridin-6-amine]
- pIC50 (human JAK1): 7.00 to 11.00
- pIC50 (human JAK3): < 6.00
- pIC50 (human TYK2): 7.00 to 11.00
- pIC50 ([1]; Homo sapiens, HeLa): 6.30 to 9.00

SMILES: CCc1cc(CN2CCS(=O)(=O)CC2)ccc1N(C)c1cc2c(cn1)ncn2C [Compound 143, [4-(1,1-Dioxothiomorpholin-4-ylmethyl)-2-ethyl-phenyl]-methyl-(1-methyl-1H-imidazo[4,5-c]pyridin-6-yl)-amine]
- pIC50 (human JAK1): 7.00 to 11.00
- pIC50 (human JAK3): 6.00 to 6.30
- pIC50 (human TYK2): 6.00 to 6.30
- pIC50 ([1]; Homo sapiens, HeLa): < 6.00

SMILES: CN(c1cc2c(cn1)ncn2C)c1ccc(C2CN(S(C)(=O)=O)C2)cc1F [Compound 277, [2-Fluoro-4-(1-methanesulfonyl-azetidin-3-yl)-phenyl]-methyl-(1-methyl-1H-imidazo[4,5-c]pyridin-6-yl)-amine]
- pIC50 (human JAK1): 7.00 to 11.00
- pIC50 (human JAK3): 6.30 to 7.00
- pIC50 (human TYK2): 6.00 to 6.30
- pIC50 [1]: < 6.00

SMILES: CCc1cc(-c2cnc(C(C)C)nc2)ccc1N(C)c1cc2c(cn1)ncn2C [Compound 140, N-(2-ethyl-4-(2-isopropylpyrimidin-5-yl)phenyl)-N,1-dimethyl-1H-imidazo[4,5-c]pyridin-6-amine]
- pIC50 (human JAK1): 7.00 to 11.00
- pIC50 (human JAK3): < 6.00
- pIC50 (human TYK2): 6.30 to 7.00
- pIC50 ([1]; Homo sapiens, HeLa): < 6.00

SMILES: CCc1cc(C2=CCN(C(=O)C(O)C(F)(F)F)CC2)ccc1N(C)c1cc2c(cn1)ncn2C (centres unmarked) [Compound 230, 1-(4-(3-ethyl-4-(methyl(1-methyl-1H-imidazo[4,5-c]pyridin-6-yl)amino)phenyl)-5,6-dihydropyridin-1(2H)-yl)-3,3,3-trifluoro-2-hydroxypropan-1-one]
- pIC50 (human JAK1): 7.00 to 11.00
- pIC50 (human JAK3): 7.00 to 11.00
- pIC50 (human TYK2): 7.00 to 11.00
- pIC50 ([1]; Homo sapiens, HeLa): 6.30 to 9.00

SMILES: CCc1cc(C2CCN(C(=O)COC)CC2)ccc1N(C)c1cc2c(cn1)ncn2C [Compound 226, 1-(4-(3-ethyl-4-(methyl(1-methyl-1H-imidazo[4,5-c]pyridin-6-yl)amino)phenyl)piperidin-1-yl)-2-methoxyethanone]
- pIC50 (human JAK1): 7.00 to 11.00
- pIC50 (human JAK3): 6.30 to 7.00
- pIC50 (human TYK2): 7.00 to 11.00
- pIC50 [1]: < 6.00

SMILES: CCc1cc(-c2noc(C)n2)ccc1N(C)c1cc2c(cn1)ncn2C [Compound 147, N-(2-ethyl-4-(5-methyl-1,2,4-oxadiazol-3-yl)phenyl)-N,1-dimethyl-1H-imidazo[4,5-c]pyridin-6-amine]
- pIC50 (human JAK1): 7.00 to 11.00
- pIC50 (human JAK3): < 6.00
- pIC50 (human TYK2): 7.00 to 11.00
- pIC50 ([1]; Homo sapiens, HeLa): 6.00 to 6.30

SMILES: CCc1cc(C(O)C(F)(F)F)ccc1N(C)c1cc2c(cn1)ncn2C (centres unmarked) [Compound 159, 1-(3-Ethyl-4-(methyl(1-methyl-1H-imidazo[4,5-c]pyridin-6-yl)amino)phenyl)-2,2,2-trifluoroethanol]
- pIC50 (human JAK1): 7.00 to 11.00
- pIC50 (human JAK3): 6.00 to 6.30
- pIC50 (human TYK2): 6.30 to 7.00
- pIC50 ([1]; Homo sapiens, HeLa): < 6.00

SMILES: CCc1cc(C2=CCN(C(=O)[C@H](C)O)CC2)ccc1N(C)c1cc2c(cn1)ncn2C [Compound 251, (S)-1-(4-(3-ethyl-4-(methyl(1-methyl-1H-imidazo[4,5-c]pyridin-6-yl)amino)phenyl)-5,6-dihydropyridin-1(2H)-yl)-2-hydroxypropan-1-one]
- pIC50 (human JAK1): 7.00 to 11.00
- pIC50 (human JAK3): 6.30 to 7.00
- pIC50 (human TYK2): 7.00 to 11.00
- pIC50 ([1]; Homo sapiens, HeLa): 6.30 to 9.00

SMILES: CCc1cc(-c2cnn(Cc3cccc(OC)c3)c2)ccc1N(C)c1cc2c(cn1)ncn2C [Compound 236, N-(2-ethyl-4-(1-(3-methoxybenzyl)-1H-pyrazol-4-yl)phenyl)-N,1-dimethyl-1H-imidazo[4,5-c]pyridin-6-amine]
- pIC50 (human JAK1): 7.00 to 11.00
- pIC50 (human JAK3): 7.00 to 11.00
- pIC50 (human TYK2): 7.00 to 11.00
- pIC50 ([1]; Homo sapiens, HeLa): 6.30 to 9.00
